Test results: article PMC12786078, “Identification of Novel JAK2 Inhibitors from Amino Derivatives of Epoxyalantolactone: In Silico and In Vitro Studies” (International Journal of Molecular Sciences, 2025)
Where “and” joins values, the source holds several entries; their conditions need not be identical. Equal entries are not always repeated. Where two headings read alike, the source gives them in different places.

Experiments:
HeLa cells [1] = experiment: DCFH2-DA intracellular ROS assay; assay type: cell-based, human
Method: After 24 h, the cells were incubated with 100 µL of 10 µM DCFH2-DA (Sigma-Aldrich) diluted in Hank’s Balanced Salt Solution (HBSS) at 37 °C for 30 min in the dark. […] At the end of the treatment, cells were washed twice with cold phosphate-buffered saline (PBS), and 200 µL of 1% Triton X-100 in 0.3 M NaOH was added to lyse the cells.

HeLa cells [2] = experiment: MTT cytotoxicity assay; settings: 48 h
Method: (§1) Human cervical adenocarcinoma (HeLa), hepatocellular carcinoma (HepG2) and mouse fibroblast (L929) cells were cultured in Dulbecco’s Modified Eagle’s Medium (DMEM) containing 10% fetal bovine serum (FBS), 100 U/mL penicillin G, and 100 μg/mL streptomycin. Human neuroblastoma (SH-SY5Y) cells were maintained in DMEM/F-12 medium with the same supplements. All cultures were incubated at 37 °C in a humidified atmosphere of 5% CO2.
(§2) Cells were seeded in 96-well plates at a density of 5 × 10^3 cells per well in 100 µL of complete DMEM and incubated overnight at 37 °C in a humidified incubator with 5% CO2. […] After 48 h of treatment, 100 µL of MTT solution (0.5 mg/mL in serum-free medium) was added to each well and incubated for an additional 3 h at 37 °C. The supernatant was then removed, and 100 µL of DMSO was added to dissolve the resulting formazan crystals. Absorbance was measured at 570 nm using an EnSight Multimode Microplate Reader (PerkinElmer, Waltham, MA, USA). IC50 values were calculated using nonlinear regression analysis in GraphPad Prism version 9.

L929 fibroblasts = experiment: MTT cytotoxicity assay; settings: read-out: IC50 L929
Method: as §1, §2

HepG2 cells = experiment: MTT cytotoxicity assay; settings: read-out: IC50 HepG2
Method: as §1, §2

[3] = tested on: SH-SY5Y neuroblastoma cells; experiment: MTT cytotoxicity assay; settings: 48 h, read-out: IC50 SH-SY5Y
Method: as §1, §2

HEK-293T cells = experiment: MTT cytotoxicity assay; settings: read-out: IC50 HEK-293T
Method: as §2

[4] = Annexin V-FITC/PI apoptosis detection by flow cytometry; settings: human, HeLa cells
Method: (§3) HeLa cells were seeded in 6-well plates at a density of 3 × 10^5 cells per well in 2 mL of complete DMEM and allowed to adhere overnight. […] Following treatment, cells were harvested by trypsinization and washed twice with 1 mL of cold phosphate-buffered saline (PBS) to remove non-adherent and dead cells. The cell pellets were resuspended in 100 µL of binding buffer and stained with 5 µL of Annexin V-FITC and 5 µL of propidium iodide (PI, 0.05 µg/mL). The staining was performed in the dark at room temperature for 15 min. Apoptotic cell death was quantified by flow cytometry, with early and late apoptotic populations distinguished based on Annexin V-FITC and PI fluorescence signals.

JAK2 = molecular target: T1, JAK2 (Homo sapiens, UniProt O60674); experiment: JAK2 kinase assay (ADP-Glo); assay type: biochemical; settings: 5 μM ATP, mean ± SEM, read-out: IC50, JAK2 kinase inhibition
T1 construct: purchased Sigma-Aldrich SRP0171
Method: For each reaction, 2.5 ng/μL of JAK2 enzyme (SRP0171, Sigma-Aldrich) was combined with 1 μM of the test compounds or known drugs, 5 μM ATP, and 2 ng/μL of poly(glu·tyr) substrate in a reaction buffer containing 40 mM Tris-HCl (pH 7.5), 20 mM MgCl2, and 0.1 mg/mL BSA. The reaction mixture was incubated at room temperature for 1 h. After incubation, 5 μL of the ADP-Glo reagent was added to each reaction, followed by an additional 40 min incubation. Next, 10 μL of the kinase detection reagent was added, and the reactions were incubated at room temperature for 30 min to convert ADP to ATP. Luminescence, reflecting ATP levels, was measured using an EnSight Multimode Microplate Reader. […] All assays were performed in triplicate, and the resulting data were presented as the relative inhibition (%) of inhibitors compared to the control without any inhibitor, as shown in Equation (1).(1) %Relative inhibition=[positive−negative−sample−negative]/(positive−negative)×100

HeLa cells [5] = experiment: Annexin V-FITC/PI apoptosis detection by flow cytometry
Method: as §3

[6] = IC50 concentration of the compound
[7] = HeLa, 48 h, at IC50 (SL10 8 µM, SL35 6 µM, ruxolitinib 25 µM)

T1 sequence (O60674 808-1132 limits assumed): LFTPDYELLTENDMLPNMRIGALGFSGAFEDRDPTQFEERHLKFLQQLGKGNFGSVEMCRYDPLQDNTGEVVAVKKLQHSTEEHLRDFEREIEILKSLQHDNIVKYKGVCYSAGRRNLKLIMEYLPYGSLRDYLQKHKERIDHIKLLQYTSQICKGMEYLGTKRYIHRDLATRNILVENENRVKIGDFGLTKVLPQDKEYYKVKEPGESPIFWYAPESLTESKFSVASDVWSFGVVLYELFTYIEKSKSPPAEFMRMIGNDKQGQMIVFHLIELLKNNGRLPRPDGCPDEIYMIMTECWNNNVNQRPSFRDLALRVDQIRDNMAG

Row | Compound | IC50 (HeLa cells [2]; read-out: IC50 HeLa, MTT) | IC50 (JAK2) | IC50 (L929 fibroblasts; MTT, 48 h) | IC50 (HepG2 cells; MTT, 48 h) | IC50 ([3]; MTT) | IC50 (HEK-293T cells; MTT) | also measured
1 | OO [H2O2, hydrogen peroxide, reference compound] | – | – | – | – | – | – | intracellular ROS level relative to control (HeLa cells [1]; 200 µM): approximately 1.7 fold
2 | N#CC[C@H](C1CCCC1)n1cc(-c2ncnc3[nH]ccc23)cn1 [Ruxolitinib, reference compound] | 25 ± 1.25 µM | – | – | – | – | – | IC50 (HeLa cells [2]; Homo sapiens, HeLa, read-out: IC50 HeLa, MTT, 48 h): 25 ± 1.3 µM; IC50 (L929 fibroblasts; Mus musculus, L929, 48 h): 80.4 ± 2.33 µM; IC50 (HepG2 cells; Homo sapiens, HepG2, 48 h): 34.6 ± 2.56 µM; IC50 ([3]; Homo sapiens, SH-SY5Y): 68.63 ± 0.19 µM; IC50 (HEK-293T cells; Homo sapiens, HEK-293T): 89.7 ± 1.98 µM; viability at 48 h, 25 µM [4]: 63.5 ± 2.17%
3 | COc1ccc(CN2CC3C(=O)OC4CC5(C)CCCC(C)C5(O)C2C43)cc1OC (stereo not drawn) [SL8] | 88.2 µM | 0.0871 ± 0.0026 µM | 92.6 ± 2.87 µM | 42.6 ± 2.14 µM | 59.6 ± 2.84 µM | 90.7 ± 1.61 µM | –
4 | CC1CCCC2(C)CC3OC(=O)C(CN4CCN(c5ccccc5)CC4)C3C3OC132 (stereo not drawn) [SL10] | 8.47 ± 0.74 µM | 0.0127 µM | 25.4 µM | 19.7 µM | 23.1 µM | 14.5 ± 0.74 µM | intracellular ROS level relative to control (HeLa cells [1]; [6]): approximately 1.4 fold; early apoptosis (HeLa cells [5]; [7]): 56.39 ± 2.21%; late apoptosis (HeLa cells [5]; [7]): 11.61 ± 0.99%; viable cells (HeLa cells [5]; [7]): 31.30 ± 2.21%
5 | CC1CCCC2(C)CC3OC(=O)C(CN4CCN(c5ccc(F)cc5)CC4)C3C3OC132 (stereo not drawn) [SL14] | 13.2 µM | 0.0576 ± 0.0012 µM | 52.8 ± 1.92 µM | 27.5 ± 0.73 µM | 35.8 ± 2.13 µM | 50.9 ± 3.3 µM | –
6 | Cc1cccc(N2CCN(CC3C(=O)OC4CC5(C)CCCC(C)C56OC6C43)CC2)c1 (stereo not drawn) [SL31] | 13.7 µM | 0.0893 ± 0.0015 µM | 62.8 ± 3.39 µM | 19.62 ± 0.05 µM | 24.2 ± 1.69 µM | 24.5 ± 1.12 µM | –
7 | CC1CCCC2(C)CC3OC(=O)C4CN(CCc5c[nH]c6ccccc56)C(C34)C12O (stereo not drawn) [SL33] | 33.8 ± 2.8 µM | 0.0791 ± 0.0018 µM | 40.5 ± 2.22 µM | 45.28 ± 0.41 µM | 58.6 ± 0.71 µM | 29.3 ± 0.96 µM | IC50 (HeLa cells [2]; read-out: IC50 HeLa, MTT, listed as SLL33): 33.8 ± 2.78 µM
8 | CC1CCCC2(C)CC3OC(=O)C(CN4CCN(c5ncccn5)CC4)C3C3OC132 (stereo not drawn) [SL35] | 6.07 ± 0.11 µM | 0.0217 µM and 0.0216 µM | 23.1 µM | 13.3 µM | 19.2 µM and 19.3 µM | 14.6 ± 1.05 µM | intracellular ROS level relative to control (HeLa cells [1]; [6]): around 2.0 fold; viable cells (HeLa cells [5]): 66.19 ± 1.51%; early apoptosis (HeLa cells [5]; [7]): 26.30 ± 1.69%; late apoptosis (HeLa cells [5]; [7]): 5.20 ± 0.34%
9 | O=C1O[C@H]([C@@H](O)CO)C(O)=C1O [Vitamin C, L-ascorbic acid, reference compound] | – | – | – | – | – | – | intracellular ROS level relative to control (HeLa cells [1]; 200 µM): about 0.8 fold
